Test results from US11096985B2, “Antimicrobial peptides, their variants and uses” (priority 2015, dated 2021).
Where a SMILES comes first, the peptide text is derived from it. [ ]: non-standard residue; d: D form.

How the values were obtained:
[1] = system: clinical strains of Escherichia coli; test: MIC, clinical strains of E. coli; format: cell-based; parameters: unit: μg/ml; conditions: microdilution, Muller Hinton broth-cation adjusted, 0.02% BSA, 0.2% acetic acid
Experimental: (§1) Minimum inhibition concentrations (MICs) were determined against Escherichia coli (ATCC 25922), Staphylococcus aureus (ATCC 25923), Klebsiella pneumoniae (ATCC 10031) and Pseudomonas aeruginosa (ATCC 27853). Also clinical strains of E. coli, K. pneumoniae, E. cloacae, P. aeruginosa, Serratia marcescens, Proteus mirabilis, S. pneumoniae, Acinetobacter baumannii, A. johnsonii and S. aureus were used for MICs assays. Additionally, clinical strains of yeast including Candida albicans, C. glabrata, C. parapsilosis and C. quillermondiae were used. The susceptibility of these microorganisms to Chain peptides were determined using micro broth dilution assay. Colonies of the respective microorganism from Muller Hinton (MH) agar plates incubated overnight were suspended in MH broth media and final concentration of microorganism was adjusted to 5.0×10^5 cfu/ml. An aliquot of 10 μl of each Chain peptide, or gentamicin, tetracycline as reference antibiotics were added in differing concentrations along with 90 μl of bacterial suspension to 96 well polypropylene plates and incubated at 37° C. for 20 to 24 hours. Concentrations of Chain peptides and reference antibiotics ranged from 0.125 to 128 μg/ml and the MICs were recorded as the lowest concentration with no visual growth of bacteria. Similarly, antifungal MICs were tested in Potato dextrose broth.
(§2) Clinical strains of yeasts including Candida albicans, C. glabrata, C. parapsilosis and C. quillermondiae were also tested with the 12 Chain peptides. The minimum inhibitory concentration (MICs) varied between these peptides and are presented in Tables 4a, 4b, 4c and 5a, 5b, 5c. Peptides Chain 105, 201 and 308 are broad spectrum antimicrobials with MICs between 0.5-32 μg/ml against all the bacteria and yeasts tested, except Serratia marcescens and Proteus mirabilis, against which the MICs were between 64-128 μg/ml. Peptide Chain 306 has narrow spectrum activity against E.coli at 1 μg/ml and for the rest of the bacterial strains at >32 μg/ml (FIG. 10).

[2] = system: clinical strains of Klebsiella pneumoniae; test: MIC, clinical strains of K. pneumoniae; format: cell-based; parameters: unit: μg/ml; conditions: microdilution, Muller Hinton broth-cation adjusted, 0.02% BSA, 0.2% acetic acid
Experimental: as §1, §2

[3] = system: clinical strains of Pseudomonas aeruginosa; test: MIC, clinical strains of P. aeruginosa; format: cell-based; parameters: unit: μg/ml; conditions: microdilution, Muller Hinton broth-cation adjusted, 0.02% BSA, 0.2% acetic acid
Experimental: as §1, §2

[4] = system: clinical strains of Serratia marcescens; test: MIC, clinical strains of Serratia marcescens; format: cell-based; parameters: unit: µg/mL; conditions: microdilution, Muller Hinton broth-cation adjusted, 0.02% BSA, 0.2% acetic acid
Experimental: as §1, §2

[5] = system: clinical strains of Proteus mirabilis; test: MIC, clinical strains of Proteus mirabilis; format: cell-based; parameters: unit: µg/mL; conditions: microdilution, Muller Hinton broth-cation adjusted, 0.02% BSA, 0.2% acetic acid
Experimental: as §1, §2

[6] = system: clinical strains of Enterobacter cloacae; test: MIC, clinical strains of Enterobacter cloacae; format: cell-based; parameters: unit: μg/ml; conditions: microdilution, Muller Hinton broth-cation adjusted, 0.02% BSA, 0.2% acetic acid
Experimental: as §1, §2

[7] = system: clinical strains of Staphylococcus aureus; test: MIC, clinical strains of S. aureus; format: cell-based; parameters: unit: μg/ml; conditions: microdilution, Muller Hinton broth-cation adjusted, 0.02% BSA, 0.2% acetic acid
Experimental: as §1, §2

[8] = system: clinical strains of Streptococcus pneumoniae; test: MIC, clinical strains of Streptococcus pneumoniae; format: cell-based; parameters: unit: µg/mL; conditions: microdilution, Muller Hinton broth-cation adjusted, 0.02% BSA, 0.2% acetic acid
Experimental: as §1, §2

[9] = system: clinical strains of Candida albicans; test: MIC, clinical yeast strains, Candida albicans; format: cell-based; parameters: unit: μg/ml
Summary of the method: (§3)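 MH broth; 5.0×10^5 cfu/ml; peptides 0.125–128 μg/ml; 37° C., 20–24 h; visual no-growth endpoint. Fungal MICs in potato dextrose broth.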

[10] = system: clinical strains of C. glabrata; test: MIC, clinical yeast strains, C. glabrata; format: cell-based, Candida glabrata; parameters: unit: μg/ml
Summary of the method: as §3

[11] = system: clinical strains of C. parapsilosis; test: MIC, clinical yeast strains, C. parapsilosis; format: cell-based, Candida parapsilosis; parameters: unit: μg/ml
Summary of the method: as §3

[12] = system: clinical strains of C. quillermondiae; test: MIC, clinical yeast strains, C. quillermondiae; format: cell-based; conditions: C. quillermondiae clinical yeast strain 1
Summary of the method: as §3

## CC[C@@H](C)[C@@H](N)C(=O)N[C@H](Cc1c[nH]c2ccccc12)C(=O)N[C@H](CCCCN)C(=O)N[C@H](CCCNC(=N)N)C(=O)N[C@H](Cc1ccccc1)C(=O)N[C@H](CCCNC(=N)N)C(=O)N[C@H](CC(C)C)C(=O)N[C@H](Cc1ccccc1)C(=O)N[C@H](CCCCN)C(=O)N[C@H](CCCCN)C(=O)N[C@H](Cc1c[nH]c2ccccc12)C(=O)O [Chain304D] (H-[dI][dW][dK][dR][dF][dR][dL][dF][dK][dK][dW]-OH)
[1]; Escherichia coli clinical strain 1
  Minimum inhibitory concentration: 1
[1]; Escherichia coli clinical strain 2
  Minimum inhibitory concentration: 16
[1]; Escherichia coli clinical strain 3
  Minimum inhibitory concentration: 16
[1]; Escherichia coli clinical strain 4
  Minimum inhibitory concentration: 32
[1]; Escherichia coli clinical strain 5
  Minimum inhibitory concentration: 32
[2]; Klebsiella pneumoniae clinical strain 1
  Minimum inhibitory concentration: >128
[2]; Klebsiella pneumoniae clinical strain 2
  Minimum inhibitory concentration: >128
[2]; Klebsiella pneumoniae clinical strain 3
  Minimum inhibitory concentration: >128
[2]; Klebsiella pneumoniae clinical strain 4
  Minimum inhibitory concentration: >128
[2]; Klebsiella pneumoniae clinical strain 5
  Minimum inhibitory concentration: 64
[3]; Pseudomonas aeruginosa clinical strain 1
  Minimum inhibitory concentration: 32
[3]; Pseudomonas aeruginosa clinical strain 2
  Minimum inhibitory concentration: 64
[3]; Pseudomonas aeruginosa clinical strain 3
  Minimum inhibitory concentration: 64
[3]; Pseudomonas aeruginosa clinical strain 4
  Minimum inhibitory concentration: 64
[3]; Pseudomonas aeruginosa clinical strain 5
  Minimum inhibitory concentration: 16
[4]; Serratia marcescens clinical strain 1
  Minimum inhibitory concentration: >128
[4]; Serratia marcescens clinical strain 2
  Minimum inhibitory concentration: >128
[4]; Serratia marcescens clinical strain 3
  Minimum inhibitory concentration: >128
[4]; Serratia marcescens clinical strain 4
  Minimum inhibitory concentration: >128
[4]; Serratia marcescens clinical strain 5
  Minimum inhibitory concentration: >128
[5]; Proteus mirabilis clinical strain 1
  Minimum inhibitory concentration: >128
[5]; Proteus mirabilis clinical strain 2
  Minimum inhibitory concentration: >128
[5]; Proteus mirabilis clinical strain 3
  Minimum inhibitory concentration: >128
[5]; Proteus mirabilis clinical strain 4
  Minimum inhibitory concentration: >128
[5]; Proteus mirabilis clinical strain 5
  Minimum inhibitory concentration: >128
[6]; Enterobacter cloacae clinical strain 1
  Minimum inhibitory concentration: 64
[6]; Enterobacter cloacae clinical strain 2
  Minimum inhibitory concentration: 64
[6]; Enterobacter cloacae clinical strain 3
  Minimum inhibitory concentration: 128
[6]; Enterobacter cloacae clinical strain 4
  Minimum inhibitory concentration: 128
[6]; Enterobacter cloacae clinical strain 5
  Minimum inhibitory concentration: 32
[7]; Staphylococcus aureus clinical strain 1
  Minimum inhibitory concentration: 32
[7]; Staphylococcus aureus clinical strain 2
  Minimum inhibitory concentration: 32
[7]; Staphylococcus aureus clinical strain 3
  Minimum inhibitory concentration: 16
[7]; Staphylococcus aureus clinical strain 4
  Minimum inhibitory concentration: 16
[7]; Staphylococcus aureus clinical strain 5
  Minimum inhibitory concentration: 16
[8]; Streptococcus pneumoniae clinical strain 1
  Minimum inhibitory concentration: 128
[8]; Streptococcus pneumoniae clinical strain 2
  Minimum inhibitory concentration: 128
[8]; Streptococcus pneumoniae clinical strain 3
  Minimum inhibitory concentration: 128
[8]; Streptococcus pneumoniae clinical strain 4
  Minimum inhibitory concentration: 128
[8]; Streptococcus pneumoniae clinical strain 5
  Minimum inhibitory concentration: 64
[9]; Candida albicans clinical yeast strain 1
  Minimum inhibitory concentration: 16
[9]; Candida albicans clinical yeast strain 2
  Minimum inhibitory concentration: 16
[9]; Candida albicans clinical yeast strain 3
  Minimum inhibitory concentration: 16
[9]; Candida albicans clinical yeast strain 4
  Minimum inhibitory concentration: 16
[9]; Candida albicans clinical yeast strain 5
  Minimum inhibitory concentration: 32
[10]; C. glabrata clinical yeast strain 1
  Minimum inhibitory concentration: 16
[10]; C. glabrata clinical yeast strain 2
  Minimum inhibitory concentration: 16
[10]; C. glabrata clinical yeast strain 3
  Minimum inhibitory concentration: 8
[10]; C. glabrata clinical yeast strain 4
  Minimum inhibitory concentration: 64
[11]; C. parapsilosis clinical yeast strain 1
  Minimum inhibitory concentration: 64
[11]; C. parapsilosis clinical yeast strain 2
  Minimum inhibitory concentration: 64
[11]; C. parapsilosis clinical yeast strain 3
  Minimum inhibitory concentration: 32
[11]; C. parapsilosis clinical yeast strain 4
  Minimum inhibitory concentration: 16
[12]
  Minimum inhibitory concentration: 16
